Experiments:
MC38 tumor cells = assay: MC38 subcutaneous syngeneic tumor model, tumor volume by caliper; format: in vivo, C57BL/6 mice; set-up: Percent inhibition of tumor volume: concentration or dose not given beside the values; settings: for Percent inhibition of tumor volume: vs vehicle group, negative values indicate an increase in tumor volume
Description: This Example evaluated the effectiveness of an NMDI alone and in combination with one or more immunotherapy agents for the treatment of tumor-bearing C57BL/6 mice.
Animals: Female 6-8 week old (estimated age at inoculation) C57BL/6 mice were obtained from Shanghai Lingchang Bio-Technology Co. Ltd (LC, Shanghai, China). The animals were housed at 20-26° C. with a 12 hours light and 12 hours darkness cycle.
Cell Culture: MC38 tumor cells were maintained in vitro as a monolayer culture in DMEM medium supplemented with 10% fetal bovine serum at 37° C. in an atmosphere of 5% CO2 in air. The tumor cells were routinely subcultured twice weekly. Cells in an exponential growth phase were harvested and counted for tumor inoculation.
Therapeutic compounds: Anti-PD-1 and anti-CTLA-4 antibodies were obtained from BioXCell as was an anti-CD8 antibody. The nonsense mediated decay inhibitor NMDI14 (4,5-Dimethyl-2-[[2-(1,2,3,4-tetrahydro-6,7-dimethyl-3-oxo-2-quinoxalinyl)acetyl]amino]-3-thiophenecarboxylic acid ethyl ester, Ethyl 2-{[(6,7-dimethyl-3-oxo-1,2,3,4-tetrahydro-2-quinoxalinyl)acetyl]amino}-4,5-dimethyl-3-thiophenecarboxylate) was obtained from ChemBridge Corp. (La Jolla, Calif.).
Tumor Inoculation: Each mouse was inoculated subcutaneously at the right lower flank region with MC38 tumor cells (1×10^6) in 0.1 mL of PBS for tumor development. The treatments were started when the mean tumor size reaches approximately 50 mm^3. The date of tumor cell inoculation was denoted as day 0.
Group assignment: Before grouping and treatment, all animals were weighed and the tumor volumes measured using a caliper. Tumor volume was used as numeric parameter to randomize selected animals into specified groups in order to minimize systematic error. The grouping was performed by using StudyDirector™ software (Studylog Systems, Inc. CA, USA). One optimal randomization design (generated by Matched distribution) showing minimal group to group variation in tumor volume was selected for group allocation.
After tumor cell inoculation, the animals were checked daily for morbidity and mortality as well as any effects of tumor growth and treatments on normal behavior such as mobility, visual estimation of food and water consumption, body weight gain/loss, eye/hair matting and any other abnormal effect. Tumor volumes were measured twice weekly at least in two dimensions using a caliper, and the volume expressed in mm^3 using the formula: V=0.5 a×b^2 where a and b are the long and short diameters of the tumor, respectively.

[1] = tested on: CD3+ immune cells infiltrating tumor tissue; assay: Immunohistochemistry of sectioned tumor tissue, immune cell infiltration; format: in vivo, C57BL/6 mice; settings: FFPE tumor sections; FIG. 4
Description: Immunohistochemistry (IHC): Formalin-fixed paraffin-embedded (FFPE) tissue from tumor samples were sectioned to 4 urn. Antigen retrieval (AR) was conducted at 100° C., in EDTA buffer, at pH 9.0 for 20 min. Primary antibody (diluted with validated concentration), RT 60 min+ secondary antibody (ready-to-use), RT 60 min+Bond Polymer Refine Detection.

SMILES: CCOC(=O)c1c(NC(=O)CC2Nc3cc(C)c(C)cc3NC2=O)sc(C)c1C (stereo not drawn) [NMDI14, 4,5-Dimethyl-2-[[2-(1,2,3,4-tetrahydro-6,7-dimethyl-3-oxo-2-quinoxalinyl)acetyl]amino]-3-thiophenecarboxylic acid ethyl ester]
- Percent inhibition of tumor volume (MC38 tumor cells; Day 9): −0.11%
- Mean tumor volume (MC38 tumor cells; Day 9 after inoculation, MC38 tumor-bearing C57BL/6 mice, i.p., NMDI14 20 mg/kg QDx3 weeks, antibodies 10 mg/kg (anti-CD8 200 ug/mouse) BIW x 3 weeks, n=8): 52.02 mm^3
- Mean tumor volume (MC38 tumor cells; Day 12, same model and dosing (Table 2)): 72.22 mm^3
- Percent inhibition of tumor volume (MC38 tumor cells; Day 12): 14.08%
- Mean tumor volume (MC38 tumor cells; Day 15, same model and dosing (Table 2)): 135.90 mm^3
- Percent inhibition of tumor volume (MC38 tumor cells; Day 15): −4.42%
- Mean tumor volume (MC38 tumor cells; Day 18, same model and dosing (Table 2)): 270.73 mm^3
- Percent inhibition of tumor volume (MC38 tumor cells; Day 18): 6.19%
- Mean tumor volume (MC38 tumor cells; Day 22, same model and dosing (Table 2)): 405.71 mm^3
- Percent inhibition of tumor volume (MC38 tumor cells; Day 22): 15.14%
- Mean tumor volume (MC38 tumor cells; Day 25, same model and dosing (Table 2)): 644.91 mm^3
- Percent inhibition of tumor volume (MC38 tumor cells; Day 25): 19.44%
- Mean tumor volume (MC38 tumor cells; Day 29, same model and dosing (Table 2)): 999.58 mm^3
- Percent inhibition of tumor volume (MC38 tumor cells; Day 29): 20.58%
- Mean tumor volume (MC38 tumor cells; Day 32, same model and dosing (Table 2)): 1395.65 mm^3
- Percent inhibition of tumor volume (MC38 tumor cells; Day 32): 21.74%
- Tumor inhibition (in words) (MC38 tumor cells; MC38 tumor-bearing C57BL/6 mice, Table 6, FIG. 1-3): tumor inhibition-promoting properties
- CD3+ immune cell infiltration of tumor tissue (IHC, in words) [1]: significant numbers of CD3+ immune cells infiltrating tumor tissue

Source: US10966976B2, “Methods for inducing an immune response by inhibition of nonsense mediated decay” (MOONSHOT PHARMA LLC, priority 2015, dated 2021)
